From ChEMBL document CHEMBL5465560, “Selectivity Literature for EUbOPEN Chemogenomic Library” (2024) come the findings set out here.

The target of experiment [1] is T1, TGF-beta receptor type-1 (Homo sapiens) (UniProt P36897).
T1 sequence (whole entry): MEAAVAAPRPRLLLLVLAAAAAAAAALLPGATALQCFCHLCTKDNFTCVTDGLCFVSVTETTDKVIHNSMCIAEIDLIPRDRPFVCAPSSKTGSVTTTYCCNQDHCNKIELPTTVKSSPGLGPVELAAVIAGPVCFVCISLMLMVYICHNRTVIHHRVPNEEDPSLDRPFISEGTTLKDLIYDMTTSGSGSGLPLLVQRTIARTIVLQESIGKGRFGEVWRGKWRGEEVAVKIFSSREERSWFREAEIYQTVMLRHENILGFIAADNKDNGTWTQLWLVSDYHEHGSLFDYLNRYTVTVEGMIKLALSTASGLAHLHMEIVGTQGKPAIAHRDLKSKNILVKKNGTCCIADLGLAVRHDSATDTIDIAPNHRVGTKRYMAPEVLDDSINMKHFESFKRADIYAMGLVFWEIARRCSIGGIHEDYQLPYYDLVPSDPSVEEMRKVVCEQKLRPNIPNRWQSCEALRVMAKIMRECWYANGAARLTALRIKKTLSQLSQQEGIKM
Conditions: at 10 µM.

Experiment [2] addresses T2, Tyrosine-protein kinase JAK3 (Homo sapiens) (UniProt P52333).
T2 sequence (whole entry): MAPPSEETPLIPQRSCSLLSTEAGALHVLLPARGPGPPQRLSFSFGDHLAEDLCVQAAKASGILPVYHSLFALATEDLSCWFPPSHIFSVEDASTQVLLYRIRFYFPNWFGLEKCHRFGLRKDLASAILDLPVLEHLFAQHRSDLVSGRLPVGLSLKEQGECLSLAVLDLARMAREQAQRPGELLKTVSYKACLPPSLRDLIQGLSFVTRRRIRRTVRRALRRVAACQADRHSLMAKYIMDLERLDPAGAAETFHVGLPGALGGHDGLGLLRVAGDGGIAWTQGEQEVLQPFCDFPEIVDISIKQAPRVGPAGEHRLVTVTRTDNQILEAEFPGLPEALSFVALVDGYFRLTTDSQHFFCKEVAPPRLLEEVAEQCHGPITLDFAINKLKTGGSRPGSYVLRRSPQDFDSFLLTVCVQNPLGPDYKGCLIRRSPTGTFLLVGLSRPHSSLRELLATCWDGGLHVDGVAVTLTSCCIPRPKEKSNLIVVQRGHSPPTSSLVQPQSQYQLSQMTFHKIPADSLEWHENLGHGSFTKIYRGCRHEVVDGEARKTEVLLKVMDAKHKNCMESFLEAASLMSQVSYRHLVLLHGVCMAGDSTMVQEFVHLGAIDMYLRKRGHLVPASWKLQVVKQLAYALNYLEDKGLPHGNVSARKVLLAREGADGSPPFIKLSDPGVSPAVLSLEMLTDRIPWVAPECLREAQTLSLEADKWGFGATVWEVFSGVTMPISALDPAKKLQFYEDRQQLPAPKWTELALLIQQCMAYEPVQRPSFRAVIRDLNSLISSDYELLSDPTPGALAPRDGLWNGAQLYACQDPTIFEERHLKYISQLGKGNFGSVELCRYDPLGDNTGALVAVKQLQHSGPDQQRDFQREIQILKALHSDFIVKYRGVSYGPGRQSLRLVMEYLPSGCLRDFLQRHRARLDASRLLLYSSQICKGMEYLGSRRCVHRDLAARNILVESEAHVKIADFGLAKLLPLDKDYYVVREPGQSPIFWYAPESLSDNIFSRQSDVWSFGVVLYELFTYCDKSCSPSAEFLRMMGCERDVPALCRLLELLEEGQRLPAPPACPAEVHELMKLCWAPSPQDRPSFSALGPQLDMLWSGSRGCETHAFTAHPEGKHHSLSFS
The experiment in a line: Selectivity interaction (KinomeScan (DiscoverX)) EUB0000092b JAK3. Conditions: at 10 µM.

The target of experiment [3] is Macrophage colony-stimulating factor 1 receptor (Homo sapiens) (UniProt P07333). Kind of experiment: Selectivity interaction (SelectScreen profiling (Invitrogen)) EUB0000607a CSF1R. Conditions: at 2 µM.
In experiment [4] the target is T3, Serine/threonine-protein kinase Nek9 (Homo sapiens) (UniProt Q8TD19).
T3 sequence (whole entry): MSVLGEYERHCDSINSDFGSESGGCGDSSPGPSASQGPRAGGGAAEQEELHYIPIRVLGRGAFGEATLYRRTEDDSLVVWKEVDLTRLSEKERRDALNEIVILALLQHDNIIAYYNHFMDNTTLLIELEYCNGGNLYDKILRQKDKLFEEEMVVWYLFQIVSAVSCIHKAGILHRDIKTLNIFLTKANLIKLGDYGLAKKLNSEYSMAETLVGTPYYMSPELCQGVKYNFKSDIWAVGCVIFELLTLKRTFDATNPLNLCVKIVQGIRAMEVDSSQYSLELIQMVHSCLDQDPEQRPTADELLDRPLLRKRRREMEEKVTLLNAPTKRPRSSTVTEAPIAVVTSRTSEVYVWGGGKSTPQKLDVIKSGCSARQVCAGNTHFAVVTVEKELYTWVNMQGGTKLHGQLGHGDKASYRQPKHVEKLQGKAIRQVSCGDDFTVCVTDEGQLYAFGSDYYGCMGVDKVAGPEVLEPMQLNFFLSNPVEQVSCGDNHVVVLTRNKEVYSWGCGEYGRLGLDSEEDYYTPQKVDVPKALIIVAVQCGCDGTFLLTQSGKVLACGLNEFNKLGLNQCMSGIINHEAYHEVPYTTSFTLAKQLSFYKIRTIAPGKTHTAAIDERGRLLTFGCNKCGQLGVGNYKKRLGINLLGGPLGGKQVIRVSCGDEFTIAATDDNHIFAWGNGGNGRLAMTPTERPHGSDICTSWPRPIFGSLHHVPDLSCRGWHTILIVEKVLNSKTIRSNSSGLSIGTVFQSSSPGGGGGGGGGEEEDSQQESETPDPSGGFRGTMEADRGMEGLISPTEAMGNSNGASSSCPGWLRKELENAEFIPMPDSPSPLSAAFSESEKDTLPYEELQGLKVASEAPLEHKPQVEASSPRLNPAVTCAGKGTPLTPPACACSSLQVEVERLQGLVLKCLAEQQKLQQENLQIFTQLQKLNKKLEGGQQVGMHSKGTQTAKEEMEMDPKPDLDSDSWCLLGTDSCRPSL
Kind of experiment: Selectivity interaction (ActivX KiNativ screen (kinase selectivity in THP-1 cell lysates)) EUB0000639a NEK9. It counts as subcellular. Conditions: lysate, at 0.01 µM.

Experiment [5] deals with Acetylcholine receptor subunit alpha (Homo sapiens, UniProt P02708). Kind of experiment: Selectivity interaction (Nicotinic (CNS) Receptor binding in human IMR32 cells ) EUB0000877a CHRNA1. Format: cell-based, IMR-32.
The target in experiment [6] is Serine/threonine-protein kinase 24 (Homo sapiens) (UniProt Q9Y6E0). The experiment in a line: Selectivity interaction (KinomeScan (DiscoverX)) EUB0001619a STK24. As to conditions: at 1 µM.
Serine/threonine-protein kinase 24 (Homo sapiens), sequence (Q9Y6E0 whole entry, looked up): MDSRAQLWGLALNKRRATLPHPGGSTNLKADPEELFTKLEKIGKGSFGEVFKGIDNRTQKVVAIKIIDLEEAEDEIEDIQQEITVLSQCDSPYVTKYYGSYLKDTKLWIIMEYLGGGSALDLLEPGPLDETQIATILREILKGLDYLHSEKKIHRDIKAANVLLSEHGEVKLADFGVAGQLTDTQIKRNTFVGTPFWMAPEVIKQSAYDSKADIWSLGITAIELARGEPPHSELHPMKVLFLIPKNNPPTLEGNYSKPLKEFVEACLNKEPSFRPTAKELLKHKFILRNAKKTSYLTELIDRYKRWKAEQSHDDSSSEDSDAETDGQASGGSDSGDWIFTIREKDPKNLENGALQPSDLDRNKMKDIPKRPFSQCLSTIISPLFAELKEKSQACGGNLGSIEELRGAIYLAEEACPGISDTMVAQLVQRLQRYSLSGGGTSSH

Macrophage colony-stimulating factor 1 receptor (Homo sapiens), sequence (P07333 whole entry): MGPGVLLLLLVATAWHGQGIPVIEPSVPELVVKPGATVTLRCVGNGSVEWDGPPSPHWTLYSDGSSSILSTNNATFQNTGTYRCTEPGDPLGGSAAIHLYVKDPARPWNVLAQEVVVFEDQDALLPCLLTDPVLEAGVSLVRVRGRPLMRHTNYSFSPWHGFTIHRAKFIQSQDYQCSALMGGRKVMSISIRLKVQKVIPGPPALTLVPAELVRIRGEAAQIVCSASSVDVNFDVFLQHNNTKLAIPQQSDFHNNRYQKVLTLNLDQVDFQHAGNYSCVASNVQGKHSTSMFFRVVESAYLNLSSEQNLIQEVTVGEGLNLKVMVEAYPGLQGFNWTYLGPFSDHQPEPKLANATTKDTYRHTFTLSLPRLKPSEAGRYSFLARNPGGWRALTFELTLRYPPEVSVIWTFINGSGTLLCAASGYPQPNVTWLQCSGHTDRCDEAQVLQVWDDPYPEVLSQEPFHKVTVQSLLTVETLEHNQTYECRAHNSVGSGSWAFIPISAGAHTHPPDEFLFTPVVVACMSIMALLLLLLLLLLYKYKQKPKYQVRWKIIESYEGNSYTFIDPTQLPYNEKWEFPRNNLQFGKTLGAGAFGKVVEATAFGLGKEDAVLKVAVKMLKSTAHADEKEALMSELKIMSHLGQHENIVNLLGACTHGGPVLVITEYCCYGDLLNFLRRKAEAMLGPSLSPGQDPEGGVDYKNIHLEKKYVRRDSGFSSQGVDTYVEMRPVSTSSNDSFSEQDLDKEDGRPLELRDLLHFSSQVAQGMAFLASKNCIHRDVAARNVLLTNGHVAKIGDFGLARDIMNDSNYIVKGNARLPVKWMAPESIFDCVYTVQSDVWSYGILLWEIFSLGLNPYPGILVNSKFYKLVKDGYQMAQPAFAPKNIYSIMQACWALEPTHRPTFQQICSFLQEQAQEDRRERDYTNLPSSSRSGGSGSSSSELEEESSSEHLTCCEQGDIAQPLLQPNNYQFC
Acetylcholine receptor subunit alpha, sequence (P02708 whole entry): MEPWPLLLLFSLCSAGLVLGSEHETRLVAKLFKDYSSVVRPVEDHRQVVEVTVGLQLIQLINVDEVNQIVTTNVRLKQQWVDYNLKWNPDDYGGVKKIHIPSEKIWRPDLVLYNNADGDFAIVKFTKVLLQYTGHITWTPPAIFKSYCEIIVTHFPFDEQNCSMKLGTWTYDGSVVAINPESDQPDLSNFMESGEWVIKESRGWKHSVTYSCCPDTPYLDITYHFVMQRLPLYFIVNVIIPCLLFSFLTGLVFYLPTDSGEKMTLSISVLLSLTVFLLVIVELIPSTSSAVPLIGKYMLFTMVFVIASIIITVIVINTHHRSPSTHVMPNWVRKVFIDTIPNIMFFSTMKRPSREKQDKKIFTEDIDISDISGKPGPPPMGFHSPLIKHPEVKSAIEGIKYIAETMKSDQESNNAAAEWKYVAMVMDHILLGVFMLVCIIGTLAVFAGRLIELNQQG

In experiment [1], `Cc1cc([C@@H](C)Nc2ccccc2C(=O)O)c2nc(N3CCOCC3)cc(=O)n2c1` [AZD-6482] gave a % of control of 100%.

Take `CCC(=O)N1CCN(c2ccc(-n3c(=O)ccc4cnc5ccc(-c6cnc7ccccc7c6)cc5c43)cc2C(F)(F)F)CC1`: the % of control in experiment [2] turned out to be 100%.

As for `CNC(=O)Nc1ccc(-c2nc(N3CC4CCC(C3)O4)c3cnn(C4CCC5(CC4)OCCO5)c3n2)cc1`, the % of inhibition in experiment [3] amounted to 7%.

`CC[C@@H]1[C@H](F)C(=O)N[C@@H]1COc1nccc2cc(C(N)=O)c(OC)cc12` [ZIMLOVISERTIB] came in with a % of inhibition in experiment [4] of 1.1%.

A word on the IC50: it is the concentration that inhibits the measured activity by half. A high value points to a need for much substance. Consider `CCC(=O)N1CC[C@H](Nc2ncnc3c2CN(c2cnc(OC)c(C(F)(F)F)c2)CC3)C1` [LENIOLISIB], for which, in experiment [5], the IC50 was more than 30 µM.

Consider `N#Cc1cccc(-c2c[nH]c3ncnc(N4CCOCC4)c23)c1`, for which the % of control in experiment [6] was found to be 60%.
